US11834414B2, “1-methyl-4-[(4-phenylphenyl)sulfonylmethyl]cyclohexyanol and 1-methyl-4-[[4-(2-pyridyl)phenyl]sulfonylmethyl]cyclohexanol compounds and their therapeutic use” (Modern Biosciences Limited, priority 2018, dated 2023)
Values belong to the compound of their own block, whether it stands above or below them.

How the values were obtained:
[1] = Human hepatocyte stability; format: in vitro ADME; details: human, pooled human hepatocytes, human hepatocytes, 1 μM, 60 minute incubation; for hepatocyte CLint at 1 μM: read-out: Human Clint (uL/min/million cells); for half-life at 1 μM: read-out: Human t1/2
Method: (§1) Metabolic stability of test compounds was measured by determination of the rate of disappearance of the compound when incubated in the presence of rat or human hepatocytes, a primary source of the most important enzymes (cytochrome P450s) involved in drug metabolism. Study of drug stability in the presence of primary hepatocytes is accepted as a valuable model permitting rapid prediction of in vivo drug stability.
(§2) Rat or human hepatocytes were obtained from a commercial source and viability was assessed using a trypan blue solution prior to use. Test compounds (final concentration 1 μM, 0.1% DMSO, 0.9% acetonitrile) or a marker (diclofenac or diltiazem, final assay concentration 1 μM, 0.1% DMSO, 0.9% acetonitrile) were incubated with pooled hepatocytes for a 60 minute period and samples removed at up to 6 time points and analysed by LC-MS/MS for the presence/amount of test compounds.
(§3) Each compound was incubated for 0, 5, 15, 30, 45, or 60 minutes. The reactions were stopped by the addition of methanol containing an internal standard (1 μM Tolbutamide) at the appropriate time points, mixed and placed at −20° C. for ≥1 hour to quench and allow protein to precipitate. All samples were centrifuged (2500×g, 20 minutes, 4° C.). The aliquots were analysed using LC-MS/MS. Reactions were performed in duplicate at 37° C.
(§4) Data were processed, and the results plotted as In(concentration) vs. time. The elimination rate constant (slope of the regression line, k) was calculated using the following formula, where C(t) is the concentration at time t and C(0) is the starting concentration:
(§5) The half-life (t1/2) was calculated using the following formula: […]
(§6) The intrinsic clearance (CIint) was calculated using the following formula, where [cell] is the hepatocyte concentration in the assay: […]

[2] = test system: Thp1 human monocytic cells; assay: Thp1 Monocyte ATP Production Assay; format: cell-based; details: for IC50: Thp1 cells, 24 hour incubation, ATPLite, 9-point range 10 μM to 10 nM, mean of 2 independent experiments
Method: In vitro potency of test compounds was determined by incubation with Thp1 human monocytic cells and subsequent determination of Adenosine TriPhosphate (ATP) levels using firefly luciferase.
ATP is present in all metabolically active cells. When cells lose integrity, their ability to synthesise ATP is rapidly lost. […] See, e.g., Kang et al., 2015; Jiang et al., 2013. Levels of ATP can be monitored using a system based on firefly (Photinus pyralis) luciferase (see, e.g., Auld et al., 2009) using commercially available kits. A system known as
ATPlite™ was using to measure effects of the test compounds on cellular viability in vitro. This one-step assay system is an adenosine triphosphate (ATP) monitoring system based on the production of light caused by the reaction of ATP from the cells with added luciferase and D-luciferin, as illustrated in the reaction scheme below:
The emitted light is proportional to the ATP concentration.
Thp1 cells were plated at 112500 cells per well in 125 μL RPMI-1640 (no glucose) with 1% FBS in 96-well plates. Test compounds were prepared as 100 mM solutions in DMSO. These stock solutions were diluted in DMSO and then diluted 1000× in culture medium (RPMI) before being added directly to the wells so as to give the desired final compound concentration. After a 24 hour incubation at 37° C./5% CO2, ATPLite™ (Perkin Elmer) was added to each well (1:10 v/v, 10 μL). The plate was then incubated at room temperature for 5 minutes and the emitted light was quantified on Viewlux with a measurement time of 0.3 seconds and binning 4×4.
The average results for each test compound were expressed as a percent (%) of the average control value reflecting cell viability. The average values across the concentrations tested were then plotted and the IC50 for was calculated by fitting the data to a 4-parameter IC50 equation using software from Graf it (Erithacus Software). Each experiment was repeated twice and the data are presented as the mean IC50 from both experiments.

Rat hepatocyte stability = format: in vitro ADME; details: rat, pooled rat hepatocytes, 60 minute incubation; for hepatocyte CLint at 1 μM: read-out: Rat Clint (μL/min/million cells); for half-life at 1 μM: read-out: Rat t1/2
Method: as §1, §2, §3, §4, §5, §6

hepatocyte CLint at 1 μM [1]: 22 µL/min/1e6 cells | half-life at 1 μM [1]: 1.87 h
SMILES: O=S(=O)(N[C@H]1CC[C@H](O)CC1)c1ccc(-c2ccc(F)cc2F)cc1 [ABD599, reference compound]

hepatocyte CLint at 1 μM [1]: 52.9 µL/min/1e6 cells | half-life at 1 μM [1]: 0.417 h | IC50 ([2]; Homo sapiens, THP-1, 24 h): 500 nM
SMILES: C[C@]1(O)CC[C@H](CS(=O)(=O)c2ccc(-c3ncc(F)cc3F)cc2C(F)(F)F)CC1 [CHMSA-09-B, trans-4-(((4-(3,5-Difluoropyridin-2-yl)-2-(trifluoromethyl)phenyl)sulfonyl)methyl)-1-methylcyclohexan-1-ol]

hepatocyte CLint at 1 μM [1]: 4.5 µL/min/1e6 cells | half-life at 1 μM [1]: 4.95 h | IC50 ([2]; Homo sapiens, THP-1, 24 h): 4400 nM
SMILES: C[C@]1(O)CC[C@H](CS(=O)(=O)c2ccc(-c3ccc(C#N)cc3F)cc2)CC1 [CHMSA-01-B, 2-Fluoro-4′-(((trans-4-hydroxy-4-methylcyclohexyl)methyl)sulfonyl)-[1,1′-biphenyl]-4-carbonitrile]

IC50 ([2]; Homo sapiens, THP-1, 24 h): 1800 nM
SMILES: C[C@]1(O)CC[C@@H](CS(=O)(=O)c2ccc(-c3ccc(F)cc3F)c(C#N)c2)CC1 [CHMSA-06-A, 2′,4′-difluoro-4-(((cis-4-hydroxy-4-methylcyclohexyl)methyl)sulfonyl)-[1,1′-biphenyl]-2-carbonitrile]

Continued, compound first:

SMILES: C[C@]1(O)CC[C@H](CS(=O)(=O)c2ccc(-c3ccc(Cl)cc3Cl)cc2)CC1 [CHMSA-11-B, trans-4-(((2′,4′-Dichloro-[1,1′-biphenyl]-4-yl)sulfonyl)methyl)-1-methylcyclohexan-1-ol]
hepatocyte CLint at 1 μM [1]: 13.3 µL/min/1e6 cells | half-life at 1 μM [1]: 1.66 h | IC50 ([2]; Homo sapiens, THP-1, 24 h): 800 nM

SMILES: C[C@]1(O)CC[C@H](CS(=O)(=O)c2ccc(-c3ccc(C#N)cc3)c(Cl)c2)CC1 [CHMSA-07-B, 2′-Chloro-4′-(((trans-4-hydroxy-4-methylcyclohexyl)methyl)sulfonyl)-[1,1′-biphenyl]-4-carbonitrile]
IC50 ([2]; Homo sapiens, THP-1, 24 h): 2500 nM

SMILES: C[C@]1(O)CC[C@H](CS(=O)(=O)c2ccc(-c3ccc(F)cc3F)c(C#N)c2)CC1 [CHMSA-06-B, 2′,4′-Difluoro-4-(((trans-4-hydroxy-4-methylcyclohexyl)methyl)sulfonyl)-[1,1′-biphenyl]-2-carbonitrile]
IC50 ([2]; Homo sapiens, THP-1, 24 h): 4500 nM

SMILES: C[C@]1(O)CC[C@H](NS(=O)(=O)c2ccc(-c3ccc(F)cc3F)cc2)CC1 [ABD900, reference compound]
hepatocyte CLint at 1 μM (Rat hepatocyte stability): 79 µL/min/1e6 cells | half-life at 1 μM (Rat hepatocyte stability): 0.298 h | hepatocyte CLint at 1 μM [1]: 6.3 µL/min/1e6 cells | half-life at 1 μM [1]: 3.67 h | IC50 [2]: 1100 nM

SMILES: C[C@]1(O)CC[C@@H](CS(=O)(=O)c2ccc(-c3ccc(F)cc3F)cc2C(F)(F)F)CC1 [CHMSA-08-A, cis-4-(((2′,4′-difluoro-3-(trifluoromethyl)-[1,1′-biphenyl]-4-yl)sulfonyl)methyl)-1-methylcyclohexan-1-ol]
hepatocyte CLint at 1 μM [1]: 18 µL/min/1e6 cells | half-life at 1 μM [1]: 1.22 h | IC50 ([2]; Homo sapiens, THP-1, 24 h): 200 nM | potency in the Thp1 monocytic ATP assay (in words) ([2]; compared to the reference compounds): excellent potency

SMILES: C[C@]1(O)CC[C@H](CS(=O)(=O)c2ccc(-c3ccc(C#N)cc3Cl)cc2)CC1 [CHMSA-05-B, 2-Chloro-4′-(((trans-4-hydroxy-4-methylcyclohexyl)methyl)sulfonyl)-[1,1′-biphenyl]-4-carbonitrile]
hepatocyte CLint at 1 μM [1]: 6.5 µL/min/1e6 cells | half-life at 1 μM [1]: 3.79 h | IC50 ([2]; Homo sapiens, THP-1, 24 h): 2700 nM

SMILES: C[C@]1(O)CC[C@@H](CS(=O)(=O)c2ccc(-c3ccc(Cl)cc3C#N)cc2)CC1 [CHMSA-10-A, 4-chloro-4′-((cis-4-hydroxy-4-methylcyclohexyl)methanesulfonyl)-(1,1′-biphenyl)-2-carbonitrile]
hepatocyte CLint at 1 μM (Rat hepatocyte stability): 149 µL/min/1e6 cells | half-life at 1 μM (Rat hepatocyte stability): 0.178 h | hepatocyte CLint at 1 μM [1]: 30.8 µL/min/1e6 cells | half-life at 1 μM [1]: 0.617 h | IC50 ([2]; Homo sapiens, THP-1, 24 h): 1630 nM

SMILES: C[C@]1(O)CC[C@@H](CS(=O)(=O)c2ccc(-c3ccc(C#N)cc3)c(Cl)c2)CC1 [CHMSA-07-A, 2′-chloro-4′-(((cis-4-hydroxy-4-methylcyclohexyl)methyl)sulfonyl)-[1,1′-biphenyl]-4-carbonitrile]
IC50 ([2]; Homo sapiens, THP-1, 24 h): 1300 nM
